pIC50: −log10 of the molar value.
What was measured:
[1] = Pharmacokinetic study of (S)G04 in mice, serum UPLC-MS/MS; assay type: in vivo; conditions: IV injection of 10 and 50 μM in PAS buffer
Procedure: Standard (S)G04 was diluted from DMSO stock (50 mM) with PAS buffer into 10 and 50 μM, administered to mice via IV injection, and serum samples were collected at time points 1, 3, 10, 30 min, and stored at −80° C. before analysis. PK samples from mice serum (retro orbital bleed) were usually 20-100 μL.
A calibration curve in the range of 0-1 μM, i.e. 0, 0.01, 0.05, 0.1, 0.5, 1 μM, was prepared by spiking standard solution ([…] (S)G04 in PAS buffer) into blank mouse serum and then conducting serial dilution accordingly.
QC samples were prepared in the same way with final concentration of 0.05 and 0.5 μM.
Samples were prepared by carrying out the following steps. Add 20 μL of mouse serum (PK samples, calibrators and QCs), and 20 μL of internal standard in methanol, vortex for 30 secs. Add 100 μL of ice cold MeOH then vortex for 1 min. Let sit for 5 minutes before submitting to centrifuge for 10 minutes at 21,100×g (RCF) at 4° C. Take 100 μL of the supernatant and transfer to autosampler vial (max recovery, Waters). Put a cap on the vial, and load vials onto UPLC-MS autosampler for analysis. Because organic solvent evaporates relatively quickly at room temperature, samples in organic solvents should not be left at room temperature longer than 6 hr before injection. Set up the UPLC-MS/MS system: cleaning cone, in accordance with the manufacturer's Operation SOP/documents. […]

[2] = system: washed human platelet suspension; test: Inhibition of collagen-induced platelet aggregation (aggregometer); assay type: cell-based; conditions: washed human platelets, 2 min preincubation, collagen 4 μg/ml, read-out 6 min after induction
Procedure: Platelet shape change in washed platelets was monitored using an aggregometer and the decrease in light transmittance following addition of an agonist (Huzoor et al., 1993). For the purpose of this analysis, collagen was used as the agonist. Briefly, a washed human platelet suspension was incubated at 37° C. in a Lumi-Aggregometer (Chrono-Log Corporation) with stirring at 900 rpm, followed by the addition of dimethylsulfoxide (DMSO) as a control vehicle, or DMSO containing (S)G04 or (R)G04 (FIG. 1A). (S)G04 and (R)G04 were tested at concentrations of 1, 5, 10, 30 and 50 μM.
After incubating the samples with the respective compound for 2 minutes, platelet aggregation was induced by adding collagen ([…]) and the relative aggregation value was read out at 6 min after the induction. A dose response for each compound was derived.
In these experiments, a collagen concentration of 4 μg/ml was used. The IC50 values calculated for (R)G04 and (S)G04 are 40 μM and 4 μM, respectively.

[3] = system: congenic murine platelets; test: In vivo clot formation: tail bleeding time of aspirinated mice after platelet transfusion; conditions: 10 μM, murine platelets stored cold (1-6° C.) 4 hours, 24 hours post-administration of platelets
Procedure: Next, the influence of G04 ((S)G04 and (R)G04) on in vivo clot formation was examined. Congenic murine platelets were stored in cold (1-6° C.) for 4 hours and then administered to mice 24 hours after administration of aspirin. Bleeding time was measured for aspirinated mice receiving no platelets, vehicle-only platelets stored at room temperature, vehicle-only cold-stored platelets, vehicle+(R)G04 (75 μM) cold-stored platelets, and vehicle+(S)G04 (10 μM) cold-stored platelets. The results were compared to control non-aspirinated mice (Basal).

[4] = system: cold-stored human platelets; test: Human platelet recovery after xenotransfusion of cold-stored human platelets into NSG mice; assay type: in vivo, human platelets in NOD/SCID/gc-/- (NSG) mice; conditions: 10 μM in PAS-3M, cold storage 1-6° C. for 7 or 14 days, followed 24 hours post-transfusion
Procedure: To assess (S)G04 and (R)G04 prevention of platelet activation in vivo, xenotransfusion was performed of long-term (day 7, FIG. 3 and day 14, FIG. 4) stored solutions by taking an aliquot (equivalent to 1×10^6 platelets) of CFSE-labeled cold-stored human platelets (Acrodose, pooled platelets from four ABO identical donors) that were transfused to conditioned NOD/SCID/gc−/− (NSG) mice and followed for 24 hours post-transfusion.
Four storage conditions were tested. In all storage conditions, the vehicle was the platelet additive solution PAS-3M (Grifols, Barcelona, Spain). The storage conditions varied as follows (1) room temperature storage in vehicle only (RT-Vehicle), (2) cold storage (1-6° C., average ˜2° C.) in vehicle only (Cold-Vehicle), (3) cold storage in vehicle with 10 μM (S)G04 (Cold-G04-S), (4) cold storage in vehicle with 75 μM (R)G04 (Cold-G04-R).
Data is presented as an average of a triplicate analysis. […] Data is presented as an average of a triplicate analysis.

For `N[C@@H](Cc1c[nH]c2ccccc12)C(=O)N/N=C/c1ccc2nccnc2c1` [(S)G04], the “reduction of the injection concentration in 1 minute” value [1] was over 100 ×, the pIC50 [2] was 5.40 and the “bleeding time of aspirinated mice” value [3] was “completely corrected the bleeding time”. For the same molecule, the “survival of cold-stored platelets (recovery and AUC) after xenotransfusion” value [4] was “completely prevented the decreased survival”.
